# Measured values: US9896437B2, “Diarylhydantoin compounds” (The Regents of the University of California, priority 2007, dated 2018)
# Experiments:
# hormone refractory LAPC4 = experiment: Hormone refractory LAPC4 xenograft model; details: compared with vehicle
# Description: Compounds can also be tested in another xenograft model of hormone refractory prostate cancer, hormone refractory LAPC4. This model is established from passaging of hormone sensitive prostate cancer in castrated mice, which mimics the clinical progression of prostate cancer.
# [1] = system: LNCaP cells with overexpressed AR (LN-AR); experiment: MTS assay of growth of LNCaP-AR cells
# Description: LNCaP-AR cells can be maintained in Iscove's medium containing 10% FBS. The compounds are examined for their effect on growth of hormone refractory prostate cancer cells. Overexpressed LNCaP cells are used because these cells behave as hormone refractory prostate cancer cells in vitro and in vivo. Mitochondria activity by MTS assay is measured, a surrogate for growth. LNCaP cells with overexpressed AR (LN-AR) are maintained in Iscove's medium containing 10% FBS. Two days prior to drug treatment, the cells are grown in Iscove's medium containing 10% CS-FBS to deprive of androgens. The cells are then split and grown in Iscove's medium containing 10% CS-FBS with appropriate concentrations of R1881 and increasing concentrations of the test compounds. After four days incubation, cell growth is monitored by MTS (Promega, Madison, Wis.).
# The inhibitory effect of compounds on growth of hormone refractory prostate cancer in the presence of 100 pM of R1881 is measured.
# androgen receptor (AR) [2] = type: cell-based
# Description: For example, the compounds can be subjected to tests using an artificial androgen receptor (AR) response reporter system in a hormone refractory prostate cancer cell line. The prostate cancer LNCaP cells are engineered to stably express about 5-fold higher level of AR than endogenous level. The exogenous AR has similar properties to endogenous AR in that both are stabilized by a synthetic androgen R1881. […] The antagonistic activity of the compounds for which the synthesis is described above can be examined in the presence of 100 pM of R1881. Engineered LNCaP cells (LNCaP-AR, also abbreviated LN-AR) are maintained in Iscove's medium containing 10% fetal bovine serum (FBS). Two days prior to drug treatment, the cells are grown in Iscove's medium containing 10% charcoal-stripped FBS (CS-FBS) to deprive of androgens. The cells are split and grown in Iscove's medium containing 10% CS-FBS with 100 pM of R1881 and increasing concentrations of test compounds. After two days of incubation, reporter activities are assayed.
# To determine agonistic activities of different compounds, the stimulating activities on androgen receptor (AR) using the AR response reporter as the measure in the LN-AR system in the absence of R1881 can be examined.
# androgen receptor (AR) [3] = type: cell-based; remark: listed apart in the source
# Description: The LNCaP-AR cells are a line of lymph node carcinoma of prostate cells transduced with a plasmid that makes express androgen receptors.
# androgen receptor (AR) [4] = molecular target: androgen receptor (AR) (Homo sapiens, UniProt P10275, T878A); details: parental LNCaP cells
# LNCaP cells = experiment: MTS assay of growth of parental, hormone sensitive LNCaP cells
# androgen receptor (AR) (Homo sapiens, UniProt P10275, T878A), sequence (P10275 whole entry T878A): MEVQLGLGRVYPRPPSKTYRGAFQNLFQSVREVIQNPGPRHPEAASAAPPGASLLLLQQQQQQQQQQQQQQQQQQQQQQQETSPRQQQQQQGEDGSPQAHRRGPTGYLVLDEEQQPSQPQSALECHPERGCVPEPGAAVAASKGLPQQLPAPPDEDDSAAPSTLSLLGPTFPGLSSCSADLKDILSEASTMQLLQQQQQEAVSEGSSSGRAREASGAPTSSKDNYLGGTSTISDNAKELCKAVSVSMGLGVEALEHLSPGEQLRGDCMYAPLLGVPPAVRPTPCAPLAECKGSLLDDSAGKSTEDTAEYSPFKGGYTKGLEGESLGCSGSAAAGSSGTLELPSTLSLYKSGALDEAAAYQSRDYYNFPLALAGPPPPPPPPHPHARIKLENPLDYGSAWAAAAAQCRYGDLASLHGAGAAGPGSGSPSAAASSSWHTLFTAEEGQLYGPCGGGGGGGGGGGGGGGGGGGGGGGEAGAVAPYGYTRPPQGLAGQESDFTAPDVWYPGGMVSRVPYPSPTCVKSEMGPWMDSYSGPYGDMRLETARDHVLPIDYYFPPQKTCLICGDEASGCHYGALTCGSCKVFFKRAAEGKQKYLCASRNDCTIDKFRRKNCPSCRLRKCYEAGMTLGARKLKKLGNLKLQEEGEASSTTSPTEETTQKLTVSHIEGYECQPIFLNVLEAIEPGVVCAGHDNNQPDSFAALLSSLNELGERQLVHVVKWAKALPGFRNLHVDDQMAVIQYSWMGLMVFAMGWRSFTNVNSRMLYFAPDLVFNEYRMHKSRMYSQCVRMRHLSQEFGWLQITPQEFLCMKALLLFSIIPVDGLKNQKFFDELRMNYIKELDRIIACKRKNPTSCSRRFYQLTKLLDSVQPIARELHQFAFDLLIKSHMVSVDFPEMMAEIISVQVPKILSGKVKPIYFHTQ
compound,measurement,setting,value
CC(O)(CS(=O)(=O)c1ccc(F)cc1)C(=O)Nc1ccc(C#N)c(C(F)(F)F)c1 (stereo not shown) [Bicalutamide],inhibition of PSA expression,hormone refractory LAPC4,does not inhibit
same,inhibition of growth,hormone refractory LAPC4,does not inhibit
same,inhibitory effect on growth of hormone refractory prostate cancer,"[1]; presence of 100 pM of R1881, MTS",does not inhibit
C[C@]1(O)CC[C@H]2[C@@H]3CCC4=CC(=O)CCC4=C3C=C[C@@]21C [R1881],reporter activity response to androgen,androgen receptor (AR) [2]; LNCaP-AR cells,responds to low concentration
same,concentration that strongly induces the secreted PSA level,androgen receptor (AR) [3]; LNCaP-AR cells,25 pM
same,concentration at which PSA is first induced,androgen receptor (AR) [4],100 pM
same,concentration at which growth is first stimulated,LNCaP cells,100 µM
same,concentration that stimulates growth,"[1]; AR-overexpressed LNCaP, MTS",25 µM
CC1(C)C(=O)N(c2ccc(C#N)c(C(F)(F)F)c2)C(=S)N1CCCCO [RU59063],agonistic activity on AR (AR response reporter),"androgen receptor (AR) [2]; LN-AR system, hormone refractory, absence of R1881",can activate AR
same,stimulation of PSA expression (agonistic activity),"androgen receptor (AR) [3]; hormone refractory prostate cancer, absence of R1881",can stimulate PSA expression
